Results on 26 compounds are retold here after patent US20200405696A1, “INHIBITORS OF INDOLEAMINE 2,3-DIOXYGENASE AND/OR TRYPTOPHAN 2,3-DIOXYGENASE” (IDORSIA PHARMACEUTICALS LTD, priority 2018, published 2020).

One may read the IC50 as the concentration at which inhibition is half-maximal.

For assay [1], the target named is T1, Recombinant human TDO comprising amino acids 19-407 (Homo sapiens, UniProt P48775).
T1 construct: Recombinant human TDO comprising amino acids 19-407 with a N-terminal hexahistidine tag; hexahistidine (His6) (N); made in house; host or cells: E. coli
T1 sequence (P48775 19-406 limits assumed): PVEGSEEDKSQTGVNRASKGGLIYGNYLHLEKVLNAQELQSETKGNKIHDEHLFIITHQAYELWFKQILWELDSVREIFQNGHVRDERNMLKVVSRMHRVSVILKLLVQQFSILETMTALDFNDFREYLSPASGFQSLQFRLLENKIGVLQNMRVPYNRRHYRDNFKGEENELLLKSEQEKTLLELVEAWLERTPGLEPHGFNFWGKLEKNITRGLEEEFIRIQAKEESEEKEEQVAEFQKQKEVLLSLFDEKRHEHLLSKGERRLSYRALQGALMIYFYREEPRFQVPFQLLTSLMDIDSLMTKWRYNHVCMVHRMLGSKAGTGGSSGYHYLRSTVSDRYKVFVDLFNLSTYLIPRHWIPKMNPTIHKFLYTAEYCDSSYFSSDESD
Briefly: TDO2 enzymatic assay (NFK quantified by LCMS). It counts as biochemical. The settings on record: 15 nM enzyme, 200 μM L-tryptophan, pH7, 30 minutes pre-incubation at RT; mean values when measured multiple times; read-out: hTDO activity (IC50 in nM). A digest of the protocol:
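NFK formed over 30 min at RT from 200 μM L-tryptophan was measured by LCMS, normalized to d5-tryptophan, after compound (0.5 nM–10 μM, duplicates, 0.6% DMSO) was preincubated 30 min with 15 nM recombinant His-tagged TDO 19-407 in phosphate buffer pH 7. IC50 from four-parameter logistic fit; repeats averaged.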

The target in assay [2] is T2, Recombinant full-length human IDO1 (Homo sapiens, UniProt P14902).
T2 construct: Recombinant full-length human IDO1 with a N-terminal hexahistidine tag; hexahistidine (His6) (N); made in house; host or cells: E. coli
T2 sequence (P14902 whole entry): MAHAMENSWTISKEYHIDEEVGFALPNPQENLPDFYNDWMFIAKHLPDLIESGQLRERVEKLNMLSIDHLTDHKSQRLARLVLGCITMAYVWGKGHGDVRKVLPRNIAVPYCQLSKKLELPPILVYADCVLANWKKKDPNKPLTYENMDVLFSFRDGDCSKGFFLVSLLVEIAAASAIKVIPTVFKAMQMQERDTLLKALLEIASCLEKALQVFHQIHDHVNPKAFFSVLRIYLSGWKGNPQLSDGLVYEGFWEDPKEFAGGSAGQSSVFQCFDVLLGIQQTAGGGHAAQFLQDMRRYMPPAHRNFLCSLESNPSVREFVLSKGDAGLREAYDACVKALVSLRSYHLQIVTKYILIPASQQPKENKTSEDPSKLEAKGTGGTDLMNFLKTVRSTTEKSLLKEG
Briefly: IDO1 enzymatic assay (NFK quantified by LCMS). The class given is biochemical. The settings on record: 2 nM enzyme, 5 μM L-tryptophan, pH6.5, 30 minutes pre-incubation at RT; mean values when measured multiple times; read-out: hIDO activity (IC50 in nM). A digest of the protocol:
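His-tagged human IDO1 (2 nM) in pH 6.5 phosphate buffer with ascorbate, methylene blue and catalase was preincubated with compound (10 μM–0.5 nM, 0.6% DMSO) for 30 min at RT. The reaction then ran with 5 μM L-Trp for 30 min. NFK was measured by LCMS against a d5-Trp standard, and IC50 was obtained by four-parameter fit.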

Regarding `Cc1sc2cncn2c1C(O)c1cnc(-c2ccccc2)s1` (racemic) [Example 155, rac-(2-Methyl-imidazo[5,1-b]thiazol-3-yl)-(2-phenyl-thiazol-5-yl)-methanol], the values for the IC50 in assay [1] and in assay [2] were greater than 10200 nM and 734 nM, respectively.

`COc1ccc(-n2cc(C(O)c3c(C4CC4)sc4cncn34)nn2)nc1OC` (racemic) [Example 66, rac-(2-Cyclopropyl-imidazo[5,1-b]thiazol-3-yl)-[1-(5,6-dimethoxy-pyridin-2-yl)-1H-[1,2,3]triazol-4-yl]-methanol]: the IC50 was greater than 10200 nM in assay [1] and 200 nM in assay [2].

Regarding `CC(C)(O)CCOc1ccc(-n2cc([C@H](O)c3c(C4CC4)sc4cncn34)nn2)cc1Cl` [Example 277, 4-(2-Chloro-4-{4-[(R)-(2-cyclopropyl-imidazo[5,1-b]thiazol-3-yl)-hydroxy-methyl]-[1,2,3]triazol-1-yl}-phenoxy)-2-methyl-butan-2-ol], the IC50 in assay [1] is greater than 10200 nM; in assay [2], 7.12 nM.

`CCCCNC(=O)Nc1ccc(-n2cc(C(O)c3c(CC)sc4cncn34)nn2)cc1` (racemic) [Example 122, rac-1-Butyl-3-(4-{4-[(2-ethyl-imidazo[5,1-b]thiazol-3-yl)-hydroxy-methyl]-[1,2,3]triazol-1-yl}-phenyl)-urea]: the IC50 worked out at 2070 nM in assay [1] and 25.6 nM in assay [2].

Consider `Cc1sc2cncn2c1C(O)c1cn(-c2cccc(C#N)c2)nn1` (racemic) [Example 60, rac-3-{4-[Hydroxy-(2-methyl-imidazo[5,1-b]thiazol-3-yl)-methyl]-[1,2,3]triazol-1-yl}-benzonitrile], for which the IC50 in assay [1] was greater than 10200 nM; in assay [2], 294 nM.

Take `O=C(NCCO)c1ccc(-n2cc(C(O)c3c(C4CC4)sc4cncn34)nn2)cc1` (racemic) [Example 186, rac-4-{4-[(2-Cyclopropyl-imidazo[5,1-b]thiazol-3-yl)-hydroxy-methyl]-[1,2,3]triazol-1-yl}-N-(2-hydroxy-ethyl)-benzamide]: the IC50 is greater than 10200 nM in assay [1] and 17.3 nM in assay [2].

Turning to `Cc1sc2cncn2c1C(O)c1cn(-c2ccc3[nH]ccc3c2)nn1` (racemic) [Example 59, rac-[1-(1H-Indol-5-yl)-1H-[1,2,3]triazol-4-yl]-(2-methyl-imidazo[5,1-b]thiazol-3-yl)-methanol], the IC50 came to 8400 nM in assay [1] and 50.4 nM in assay [2].

As for `COc1ccc(-n2cc(C(O)c3c(C4CC4)sc4cncn34)nn2)cc1Br` (racemic) [Example 290, rac-[1-(3-Bromo-4-methoxy-phenyl)-1H-[1,2,3]triazol-4-yl]-(2-cyclopropyl-imidazo[5,1-b]thiazol-3-yl)-methanol], the IC50 is greater than 10200 nM in assay [1] and 15.3 nM in assay [2].

In the case of `OC(c1cn(-c2ccc(OCC3(F)COC3)c(Cl)c2)nn1)c1c(-c2ccccc2)sc2cncn12` (racemic) [Example 266, rac-{1-[3-Chloro-4-(3-fluoro-oxetan-3-ylmethoxy)-phenyl]-1H-[1,2,3]triazol-4-yl}-(2-phenyl-imidazo[5,1-b]thiazol-3-yl)-methanol], the IC50 in assay [1] was greater than 10200 nM; in assay [2], 179 nM.

On to `Oc1ccccc1Cn1cc(C(O)c2c(C3CC3)sc3cncn23)nn1` (racemic) [Example 305, rac-2-{4-[(2-Cyclopropyl-imidazo[5,1-b]thiazol-3-yl)-hydroxy-methyl]-[1,2,3]triazol-1-ylmethyl}-phenol], for which the IC50 is greater than 10200 nM in assay [1] and 71.3 nM in assay [2].

As to `OC(c1cn(-c2ccc3[nH]ccc3c2)nn1)c1c(C2CC2)sc2cncn12` (racemic) [Example 16, rac-(2-Cyclopropyl-imidazo[5,1-b]thiazol-3-yl)-[1-(1H-indol-5-yl)-1H-[1,2,3]triazol-4-yl]-methanol], the IC50 in assay [1] came out at 7880 nM; in assay [2] it was 9.03 nM.

As to `CCc1cc(-n2cc(C(O)c3c(C4CC4)sc4cncn34)nn2)ccc1O` (racemic) [Example 232, rac-4-{4-[(2-Cyclopropyl-imidazo[5,1-b]thiazol-3-yl)-hydroxy-methyl]-[1,2,3]triazol-1-yl}-2-ethyl-phenol], the results for the IC50 in assay [1] and in assay [2] were greater than 10200 nM and 40.1 nM, respectively.

With `CCc1sc2cncn2c1C(O)c1cn(-c2ccc(C(=O)NC3CC3)cc2)nn1` (racemic) [Example 125, rac-N-Cyclopropyl-4-{4-[(2-ethyl-imidazo[5,1-b]thiazol-3-yl)-hydroxy-methyl]-[1,2,3]triazol-1-yl}-benzamide], the IC50 in assay [1] amounted to 8710 nM; in assay [2], 15 nM.

For the compound `OC(c1ccc(-c2ccncc2)s1)c1c(C2CC2)sc2cncn12` (racemic) [Example 168, rac-(2-Cyclopropyl-imidazo[5,1-b]thiazol-3-yl)-(5-pyridin-4-yl-thiophen-2-yl)-methanol], the IC50 was 1060 nM in assay [1] and 189 nM in assay [2].

Regarding `COc1ccc(-n2cc(C(O)c3c([C@@H]4C[C@H]4F)sc4cncn34)nn2)cc1` (relative stereo) [Example 94, [2-(trans-2-Fluoro-cyclopropyl)-imidazo[5,1-b]thiazol-3-yl]-[1-(4-methoxy-phenyl)-1H-[1,2,3]triazol-4-yl]-methanol], the IC50 in assay [1] was greater than 10200 nM; in assay [2] it was 12.8 nM.

Regarding `CCNC(=O)Nc1ccc(-n2cc(C(O)c3c(CC)sc4cncn34)nn2)cc1OC` (racemic) [Example 113, rac-1-Ethyl-3-(4-{4-[(2-ethyl-imidazo[5,1-b]thiazol-3-yl)-hydroxy-methyl]-[1,2,3]triazol-1-yl}-2-methoxy-phenyl)-urea], the results for the IC50 in assay [1] and in assay [2] were 7720 nM and 14.3 nM, respectively.

On to `N#Cc1ccccc1-c1ccc(C(O)c2c(C3CC3)sc3cncn23)s1` (racemic) [Example 172, rac-2-{5-[(2-Cyclopropyl-imidazo[5,1-b]thiazol-3-yl)-hydroxy-methyl]-thiophen-2-yl}-benzonitrile], for which the figures for the IC50 in assay [1] and in assay [2] were 4080 nM and 272 nM, respectively.

As to `COc1ccc(-n2cc(C(O)c3c([C@@H]4C[C@@H]4F)sc4cncn34)nn2)cc1` (relative stereo) [Example 93, [2-(cis-2-Fluoro-cyclopropyl)-imidazo[5,1-b]thiazol-3-yl]-[1-(4-methoxy-phenyl)-1H-[1,2,3]triazol-4-yl]-methanol], the IC50 in assay [1] is greater than 10200 nM; in assay [2] it was 25 nM.

Turning to `CC(C)C(=O)Nc1ccc(-n2cc([C@H](O)c3c(C4CC4)sc4cncn34)nn2)cc1` [Example 192a, N-(4-{4-[(R)-(2-Cyclopropyl-imidazo[5,1-b]thiazol-3-yl)-hydroxy-methyl]-[1,2,3]triazol-1-yl}-phenyl)-isobutyramide], the IC50 in assay [1] is greater than 10200 nM; in assay [2] it was 3.71 nM.

For the compound `CCc1sc2cncn2c1C(O)c1cn(-c2cc(F)c(O)cc2F)nn1` (racemic) [Example 332, rac-4-{4-[(2-Ethyl-imidazo[5,1-b]thiazol-3-yl)-hydroxy-methyl]-[1,2,3]triazol-1-yl}-2,5-difluoro-phenol], the IC50 in assay [1] came to 2820 nM; in assay [2], 5.37 nM.

`COc1cc(F)c(-n2cc(C(O)c3c(C4CC4)sc4cncn34)nn2)cc1F` (racemic) [Example 318, rac-(2-Cyclopropyl-imidazo[5,1-b]thiazol-3-yl)-[1-(2,5-difluoro-4-methoxy-phenyl)-1H-[1,2,3]triazol-4-yl]-methanol]: the IC50 is greater than 10200 nM in assay [1] and 2.99 nM in assay [2].

On to `OC(c1cn(-c2ccc3[nH]ncc3c2)nn1)c1c(C2CC2)sc2cncn12` (racemic) [Example 253, rac-(2-Cyclopropyl-imidazo[5,1-b]thiazol-3-yl)-[1-(1H-indazol-5-yl)-1H-[1,2,3]triazol-4-yl]-methanol], for which the IC50 is greater than 10200 nM in assay [1] and 17.2 nM in assay [2].

Turning to `Oc1ccc(-n2cc(C(O)c3c(C4CC4)sc4cncn34)nn2)cc1F` (racemic) [Example 150, rac-4-{4-[(2-Cyclopropyl-imidazo[5,1-b]thiazol-3-yl)-hydroxy-methyl]-[1,2,3]triazol-1-yl}-2-fluoro-phenol], the IC50 came to 9290 nM in assay [1] and 4.83 nM in assay [2].

`OC(c1cn(-c2cncnc2)nn1)c1c(C2CC2)sc2cncn12` (racemic) [Example 19, rac-(2-Cyclopropyl-imidazo[5,1-b]thiazol-3-yl)-(1-pyrimidin-5-yl-1H-[1,2,3]triazol-4-yl)-methanol]: the IC50 in assay [1] is greater than 10200 nM; in assay [2], 182 nM.

For `CN1CCCC(COc2ccc(-n3cc(C(O)c4c(C5CC5)sc5cncn45)nn3)cc2)C1` (stereo not shown) [Example 146, (2-Cyclopropyl-imidazo[5,1-b]thiazol-3-yl)-{1-[4-(1-methyl-piperidin-3-ylmethoxy)-phenyl]-1H-[1,2,3]triazol-4-yl}-methanol], the IC50 was greater than 10200 nM in assay [1] and 44.4 nM in assay [2].

On to `Oc1ccc(-n2cc([C@H](O)c3c(C4CC4)sc4cncn34)nn2)cc1Cl` [Example 148a, 2-Chloro-4-{4-[(R)-(2-cyclopropyl-imidazo[5,1-b]thiazol-3-yl)-hydroxy-methyl]-[1,2,3]triazol-1-yl}-phenol], for which the results for the IC50 in assay [1] and in assay [2] were 4440 nM and 5.25 nM, respectively.
